Assay results as given in article PMC4154066 (Chemical research in toxicology, 2013).
Where two headings read alike, the source gives them in different places.

Experiments:
HepG2 cells [1] = assay: Oxygen consumption rate; format: cell-based, Human; details: for Relative percentage OCR 30 Sec: HepG2, 30 sec after compound at its MMP IC50; for Relative percentage OCR 30 Sec / Relative percentage OCR 1 h: basal OCR = 100%, mean ± SD; for Relative percentage OCR 1 h: HepG2, 1 h after compound at its MMP IC50; for Effect on OCR / FCCP-uncoupled OCR (in words): HepG2, compound at its MMP IC50, 30 sec and 1 h, then FCCP
HepG2 cells [2] = assay: cells; format: cell-based, Human; details: for Compound potency (IC50) LDH Release 5 h: HepG2, 5 h treatment
HepG2 cells [3] = details: HepG2, 40 h; cited from earlier work
[4] = system: mitochondrial membrane potential in HepG2 cells; assay: qHTS MMP assay, primary screen; format: cell-based, Human; details: for IC50: Homo sapiens
caspase 3/7 = details: HepG2, 16 h; cited from earlier work
[5] = read-out: Compound potency (IC50) LDH Release 1 h, HepG2, 1 h treatment, mean ± SD, 3 independent experiments
[6] = HepG2, 1 h treatment, mean ± SD, 3 independent experiments
[7] = mean ± SD, 3 independent experiments

In the case of `CC(=O)[O][Hg][c]1ccccc1` [Phenyl mercuric acetate], the “Relative percentage OCR 30 Sec” value (HepG2 cells [1]) is reported as 67.6 ± 5.55%, the “Relative percentage OCR 1 h” value (HepG2 cells [1]) is reported as 51.54 ± 0.26% and the “Effect on OCR / FCCP-uncoupled OCR (in words)” value (HepG2 cells [1]) is reported as “depressed both basal and FCCP uncoupled rates”. The IC50 (HepG2 cells [2]; [5]) was 68.1 ± 4.44 µM.
With `O=C1c2c(O)ccc([N+](=O)[O-])c2C(=O)c2c([N+](=O)[O-])ccc(O)c21` [1,8-Dihydroxy-4,5-dinitroanthraquinone] the “Relative percentage OCR 30 Sec” value (HepG2 cells [1]) was 144.03 ± 7.3%, the “Relative percentage OCR 1 h” value (HepG2 cells [1]) was 150.09 ± 1.27% and the “Effect on OCR / FCCP-uncoupled OCR (in words)” value (HepG2 cells [1]) was “acted as uncouplers”. For the same compound, the “cytotoxicity at 40 h” value (HepG2 cells [3]) was “cytotoxic”.
In the case of `Oc1ccc(Cl)cc1Cc1ccccc1` [o-Benzyl-p-chlorophenol], the “Relative percentage OCR 30 Sec” value (HepG2 cells [1]) is reported as 123.51 ± 12.67% and the “Relative percentage OCR 1 h” value (HepG2 cells [1]) is reported as 126.12 ± 0.47%.
For `CN(C)c1ccc(C(=C2C=CC(=[N+](C)C)C=C2)c2ccccc2)cc1.CN(C)c1ccc(C(=C2C=CC(=[N+](C)C)C=C2)c2ccccc2)cc1.O=C(O)C(=O)O.O=C([O-])C(=O)O.O=C([O-])C(=O)O` [Malachite green oxalate], the “Primary screen outcome (MMP decrease) 1 h” value [4] was “positive”, the “Primary screen outcome (MMP decrease) 5 h” value [4] was “positive” and the “Relative percentage OCR 30 Sec” value (HepG2 cells [1]) was 163.81 ± 17.5%. The “Relative percentage OCR 1 h” value (HepG2 cells [1]) was 97.14 ± 3.09%, the “Effect on OCR / FCCP-uncoupled OCR (in words)” value (HepG2 cells [1]) was “immediate uncoupling” and the “induction of caspase 3/7” value (caspase 3/7) was “induced caspase 3/7”. For the same compound, the “Compound potency (IC50) LDH Release 1 h” value (HepG2 cells [2]; [6]) was “Inactive” and the “Compound potency (IC50) LDH Release 5 h” value (HepG2 cells [2]; [7]) was “cytotoxic”.
For `COC(=O)Nc1cccc(OC(=O)Nc2cccc(C)c2)c1` [Phenmedipham], the “Relative percentage OCR 30 Sec” value (HepG2 cells [1]) was 105.47 ± 2.71%, the “Relative percentage OCR 1 h” value (HepG2 cells [1]) was 130.87 ± 1.18% and the “Compound potency (IC50) LDH Release 1 h” value (HepG2 cells [2]; [6]) was “Inactive”. The “Potency for cytotoxicity (LDH) compared with MMP decrease, 5 h” value (HepG2 cells [2]; HepG2, 5 h) was “more potent for cytotoxicity than for MMP disruption” and the “Compound potency (IC50) LDH Release 5 h” value (HepG2 cells [2]; [7]) was “Inconclusive”.
In the case of `Oc1ccc(Cl)cc1Cc1cc(Cl)ccc1O` [2,2'-Methylenebis-(4-chlorophenol)], the “Relative percentage OCR 30 Sec” value (HepG2 cells [1]) is reported as 170.42 ± 33.35% and the “Relative percentage OCR 1 h” value (HepG2 cells [1]) is reported as 168.27 ± 1.85%.
For `O=c1cc(-c2ccc(O)cc2)oc2cc(O)cc(O)c12` [Apigenin], the “Relative percentage OCR 30 Sec” value (HepG2 cells [1]) was 99.69 ± 1.13%, the “Relative percentage OCR 1 h” value (HepG2 cells [1]) was 107.51 ± 0.16% and the “Effect on OCR / FCCP-uncoupled OCR (in words)” value (HepG2 cells [1]) was “did not affect the OCR or the FCCP-uncoupled OCR”. For the same compound, the “cytotoxicity at 40 h” value (HepG2 cells [3]) was “the only exception”.
With `Oc1ccc(/C=C/c2cc(O)cc(O)c2)cc1` [Resveratrol] the “Relative percentage OCR 30 Sec” value (HepG2 cells [1]) was 100.5 ± 0.73% and the “Relative percentage OCR 1 h” value (HepG2 cells [1]) was 110.92 ± 0.36%.
With `CCCCCCCC[N+](CCCCCCCC)(CCCCCCCC)CCCCCCCC.[Br-]` [tetra-N-Octylammonium bromide] the “Relative percentage OCR 30 Sec” value (HepG2 cells [1]) was 122.56 ± 40.61%, the “Relative percentage OCR 1 h” value (HepG2 cells [1]) was 215.53 ± 1.14% and the IC50 (HepG2 cells [2]; [5]) was 35.4 ± 12.6 µM.
With `Oc1ccc(Cl)cc1Sc1cc(Cl)ccc1O` [2,2'-Thiobis(4-chlorophenol)] the “Relative percentage OCR 30 Sec” value (HepG2 cells [1]) was 273.19 ± 70.36% and the “Relative percentage OCR 1 h” value (HepG2 cells [1]) was 191.27 ± 0.92%.
In the case of `Cl.N=C1C=CC(=C(c2ccc(N)cc2)c2ccc(N)cc2)C=C1` [Basic red 9 (p-Rosaniline HCl), p-Rosaniline HCl], the “Relative percentage OCR 30 Sec” value (HepG2 cells [1]) is given as −9.78 ± 16.86%, the “Relative percentage OCR 1 h” value (HepG2 cells [1]) is given as 35.74 ± 2.42% and the “induction of caspase 3/7” value (caspase 3/7) is given as “negative”. The “Compound potency (IC50) LDH Release 5 h” value (HepG2 cells [2]; [7]) was “negative”.
For `O=c1c(O)c(-c2ccc(O)cc2)oc2cc(O)cc(O)c12` [Kaempferol], the “Relative percentage OCR 30 Sec” value (HepG2 cells [1]) was 118.63 ± 4.29%, the “Relative percentage OCR 1 h” value (HepG2 cells [1]) was 138.85 ± 1.28% and the “Effect on OCR / FCCP-uncoupled OCR (in words)” value (HepG2 cells [1]) was “acted as an uncoupler”. For the same compound, the “Compound potency (IC50) LDH Release 1 h” value (HepG2 cells [2]; [6]) was “Inactive” and the “Compound potency (IC50) LDH Release 5 h” value (HepG2 cells [2]; [7]) was “Inconclusive”.
For `Oc1cc(Cl)c(Cl)c(Cl)c1` [3,4,5-Trichlorophenol], the “Relative percentage OCR 30 Sec” value (HepG2 cells [1]) was 163.21 ± 18.34% and the “Relative percentage OCR 1 h” value (HepG2 cells [1]) was 173.49 ± 1.32%.
In the case of `C[C@@H]1CC[C@@]2(OC1)O[C@H]1[C@@H](O)[C@H]3[C@@H]4CC[C@H]5C[C@@H](O[C@@H]6O[C@H](CO)[C@H](O[C@@H]7O[C@H](CO)[C@@H](O)[C@H](O[C@@H]8OC[C@@H](O)[C@H](O)[C@H]8O)[C@H]7O[C@@H]7O[C@H](CO)[C@H](O)[C@H](O[C@@H]8O[C@H](CO)[C@@H](O)[C@H](O)[C@H]8O)[C@H]7O)[C@H](O)[C@H]6O)[C@H](O)C[C@]5(C)[C@H]4CC[C@]3(C)[C@H]1[C@@H]2C` [Digitonin], the “Relative percentage OCR 30 Sec” value (HepG2 cells [1]) is reported as 57.25 ± 6.4%, the “Relative percentage OCR 1 h” value (HepG2 cells [1]) is reported as 54.89 ± 0.48% and the “Effect on OCR / FCCP-uncoupled OCR (in words)” value (HepG2 cells [1]) is reported as “depressed both basal and FCCP uncoupled rates”. For the same compound, the IC50 (HepG2 cells [2]; Homo sapiens, HepG2, 1 h, read-out: Compound potency (IC50) LDH Release 1 h) was 45.1 ± 8.43 µM and the IC50 (HepG2 cells [2]; Homo sapiens, HepG2, 5 h, read-out: Compound potency (IC50) LDH Release 5 h) was 45.1 ± 8.43 µM.
`N#CC(C#N)=NNc1ccc(OC(F)(F)F)cc1` [FCCP, Carbonyl cyanide 4-(trifluoromethoxy)phenylhydrazone, reference compound] showed an IC50 ([4]; HepG2, 1 h, read-out: mean IC50 of positive control, 1 h) of 0.81 ± 0.2 µM and an IC50 ([4]; HepG2, 5 h, read-out: mean IC50 of positive control, 5 h) of 1.28 ± 0.32 µM.
In the case of `Cc1cc(O)c2c(c1)C(=O)c1cc(O)cc(O)c1C2=O` [Emodin], the “Relative percentage OCR 30 Sec” value (HepG2 cells [1]) is reported as 235.59 ± 56.54%, the “Relative percentage OCR 1 h” value (HepG2 cells [1]) is reported as 210.48 ± 1.83% and the “Effect on OCR / FCCP-uncoupled OCR (in words)” value (HepG2 cells [1]) is reported as “acted as uncouplers”. The “cytotoxicity at 40 h” value (HepG2 cells [3]) was “cytotoxic”.
In the case of `CC1=C(/C=C/C(C)=C/C=C/C(C)=C/C(=O)Nc2ccc(O)cc2)C(C)(C)CCC1` [4-Hydroxyphenyl retinamide], the “Relative percentage OCR 30 Sec” value (HepG2 cells [1]) is reported as 96.31 ± 1.42%, the “Relative percentage OCR 1 h” value (HepG2 cells [1]) is reported as 98.83 ± 0.42% and the “Effect on OCR / FCCP-uncoupled OCR (in words)” value (HepG2 cells [1]) is reported as “significantly suppressed the FCCP uncoupled rates”.
For `COc1cc(/C=C/C(=O)CC(=O)/C=C/c2ccc(O)c(OC)c2)ccc1O` [Curcumin], the “Relative percentage OCR 30 Sec” value (HepG2 cells [1]) was 86 ± 3.54%, the “Relative percentage OCR 1 h” value (HepG2 cells [1]) was 94.85 ± 0.67% and the “Effect on OCR / FCCP-uncoupled OCR (in words)” value (HepG2 cells [1]) was “significantly suppressed the FCCP uncoupled rates”.
